Where two headings read alike, the source gives them in different places.
Experiments:
[1] = biological target: T1, recombinant GST-ALK5 (residues 198-503) (Homo sapiens, UniProt P36897); test: Alk5 fluorescence polarization assay (displacement of rhodamine green-labelled ligand); type: binding
T1 construct: assays using recombinant GST-ALK5 (residues 198-503)
T1 sequence (P36897 198-503): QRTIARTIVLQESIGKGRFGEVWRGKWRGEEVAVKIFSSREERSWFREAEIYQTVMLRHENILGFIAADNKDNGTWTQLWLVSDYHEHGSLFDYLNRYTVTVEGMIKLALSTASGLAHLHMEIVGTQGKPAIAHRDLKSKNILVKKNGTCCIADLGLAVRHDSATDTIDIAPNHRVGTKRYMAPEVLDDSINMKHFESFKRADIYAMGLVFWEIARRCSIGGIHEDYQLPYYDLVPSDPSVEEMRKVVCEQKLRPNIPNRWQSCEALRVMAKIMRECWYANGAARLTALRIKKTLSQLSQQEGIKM
Method: Kinase inhibitor compounds conjugated to fluorophores, can be used as fluorescent ligands to monitor ATP competitive binding of other compounds to a given kinase. The increase in depolarization of plane polarized light, caused by release of the bound ligand into solution, is measured as a polarization/anisotropy value.
The compounds were serially diluted (3-fold in 100% DMSO) across the plate to column 11 to yield 11 concentrations for each test compound. Column 12 contained only DMSO.
ALK5 was added to assay buffer containing the above components and 1 nM of the rhodamine green-labelled ligand so that the final ALK5 concentration was 10 nM based on active site titration of the enzyme. The enzyme/ligand reagent (39 μl) was added to each well of the previously prepared assay plates. […] The plates were read immediately on a LJL Acquest fluorescence reader (Molecular Devices, serial number AQ1048) with excitation, emission, and dichroic filters of 485 nm, 530 nm, and 505 nm, respectively. The fluorescence polarization for each well was calculated by the Acquest reader and then imported into curve fitting software for construction of concentration response curves. The normalized response was determined relative to the high controls (1 μl DMSO in column 12, rows A-D) and the low controls (1 μl of control compound in column 12, rows E-H). An IC50 value was then calculated for each compound

[2] = tested on: TGF-β signalling (PAI-1 promoter-luciferase in HepG2 cells); test: Cellular transcriptional assay: PAI-1 promoter firefly luciferase reporter in cells exposed to TGF-β; type: cell-based; conditions: HepG2 cells, 1 ng/mL rhTGFβ-1
Method: Assay 1 (Cellular Transcriptional Assay)
The assay was performed in HepG2 cells stably transfected with the PAI-1 promoter (known to be a strong TGF-β responsive promoter) linked to a luciferase (firefly) reporter gene. The compounds were selected on their ability to inhibit luciferase activity in cells exposed to TGF-β. In addition, cells were transfected with a second luciferase (Renilla) gene which was not driven by a TGF-β responsive promoter and was used as a toxicity control.
96 well microplates were seeded, using a multidrop apparatus, with the stably transfected cell line at a concentration of 35000 cells per well in 200 μl of serum-containing medium. These plates were placed in a cell incubator.
18 to 24 hours later (Day 2), cell-incubation procedure was launched. Cells were incubated with TGF-β and a candidate compound at concentrations in the range 50 nM to 10 μM (final concentration of DMSO 1%). The final concentration of TGF-β (rhTGFβ-1) used in the test was 1 ng/mL. Cells were incubated with a candidate compound 15-30 mins prior to the addition of TGF-β. The final volume of the test reaction was 150 μl. Each well contained only one candidate compound and its effect on the PAI-1 promoter was monitored.
Columns 11 and 12 were employed as controls. Column 11 contained 8 wells in which the cells were incubated in the presence of TGF-β, without a candidate compound. Column 11 was used to determine the ‘reference TGF-β induced firefly luciferase value’ against which values measured in the test wells (to quantify inhibitory activity) were compared. […]
12 to 18 hours later (day 3), the luciferase quantification procedure was launched. […] Following agitation (15 to 30 mins), luciferase activities of the plates were read in a dual-injector luminometer (BMG lumistar). For this purpose, 50 μl of luciferase assay reagent and 50 μl of ‘Stop & Glo’ buffer were injected sequentially to quantify the activities of both luciferases. […] For each of the compounds tested, a concentration response curve was constructed from which an IC50 value was determined graphically.

| Structure (SMILES) | IC50 ([1]; fluorescence polarization, 10 nM ALK5, 1 nM labelled ligand, read-out: ALK5 receptor modulator activity (IC50)) [nM] | IC50 [2] [nM] | IC50 [1] [nM] | IC50 ([2]; Homo sapiens) [nM] |
| --- | --- | --- | --- | --- |
| Cc1cccc(-c2[nH]c(C(C)(C)C)nc2-c2ccnc(-c3ccc(N4CCOCC4)cc3)c2)n1 [Example 86, 4-{4-[4-(2-tert-Butyl-5-{6-methyl}-pyridin-2-yl-1 H-imidazol-4-yl)-pyridin-2-yl]-phenyl}-morpholine] | 34 | 183 |  |  |
| Cc1cccc(-c2nc(C(C)C)[nH]c2-c2ccnc(-c3ccc(C(=O)NC4CCOCC4)cc3)c2)n1 [Example 96, N-(tetrahydropyran-4-yl)-4-(4-{2-isopropyl-5-[6-methyl-pyridin-2-yl]-1H-imidazol-4-yl}-pyridin-2-yl)-benzamide] |  |  | 25 | < 14 |

Source: patent US20050245520A1, “2-Phenylpyridin-4-yl derivatives as alk5 inhibitors” (priority 2002, published 2005)
